# Experimental data reported in article PMC12566971, “Polyprenylated Acylphloroglucinols from Hypericum rochelii and Hypericum olympicum—Cytotoxic Effects on Non-Tumorigenic Cell Lines and Antibacterial Potential” (Pharmaceuticals, 2025).
# Test system: HGF cells
# Test: Western blot for autophagy proteins Atg5, Atg7
# Format: cell-based, human
# Conditions: MIC for S. aureus, relative to untreated control
# Method: For Western blot, CCL-1 and HGF cell lines were chosen, and they were seeded in either 6-well plates or 55 mm Petri dishes suitable for cell culture. They were treated with an exposure time of 24 h in an incubator (Panasonic MCO-18AC, Panasonic Healthcare Ltd., […], Japan). […] Hans-Jörg Eibl. In addition, a higher concentration of an […] added to one of the tests for comparison. The samples were trypsinized, collected, washed with PBS (TS1101, HiMedia, Mumbai, India), centrifuged, and frozen at -80 °C if storage was necessary. Then they were lysed on ice with a buffer containing 100 mM Tris-HCl (648313, Sigma-Aldrich, St. Louis, MO, USA) at pH 8.0, 4% sodium dodecyl sulfate (SDS, […], Sigma-Aldrich), 20% glycerol (49779, Sigma-Aldrich), 1% Na3VO4 (450243, Sigma-Aldrich), 200 mM dithiothreitol (DTT, 3483-12-3, Sigma-Aldrich, Burlington, MA, USA) supplemented with protease inhibitor (05892970001, Roche). The cell lysate was heated to boiling for 15 min, then centrifuged at 13,000 rpm for 10 min at 4 °C. Lysates were subjected to denaturing SDS polyacrylamide gel electrophoresis on acrylamide 4-20% gradient Mini-PROTEAN® TGXTM Stain-Free gels (4568094, Bio-Rad Laboratories, Hercules, CA, USA). […] Densitometric calculation and analysis was performed with Quantity One software version 4.6.9 (Bio-Rad Laboratories).
compound,measurement,value
CC(C)=CCCC1(C)C(CC=C(C)C)CC2C(=O)C1(C(=O)C(C)C)C(=O)C(CC=C(C)C)=C2O (stereo not shown) [Olympiforin B],Increase of Atg5 and Atg7 proteins,106–135%
